Data taken from patent US10342795B2, “Substituted 4,5,6,7-tetrahydro-pyrazolo[1,5-a]pyrimidine derivatives and 2,3-dihydro-1H-imidazo[1,2-b]pyrazole derivatives as ROS1 inhibitors” (Janssen Pharmaceutica NV, priority 2014, dated 2019).

Experiments:
[1] = target: Ba/F3 cells containing Ros1 wild-type protein (Homo sapiens, UniProt P08922, cells depend on it, form not given); test: Ba/F3-Ros1 cell proliferation assay, wild-type Ros1, without IL-3; assay type: cell-based, murine; conditions: -log IC50 (M); wild-type Ros1, no IL-3, 24 h, Alamar Blue
Chain of Ba/F3 cells containing Ros1 wild-type protein (P08922 whole entry, stated change not applied): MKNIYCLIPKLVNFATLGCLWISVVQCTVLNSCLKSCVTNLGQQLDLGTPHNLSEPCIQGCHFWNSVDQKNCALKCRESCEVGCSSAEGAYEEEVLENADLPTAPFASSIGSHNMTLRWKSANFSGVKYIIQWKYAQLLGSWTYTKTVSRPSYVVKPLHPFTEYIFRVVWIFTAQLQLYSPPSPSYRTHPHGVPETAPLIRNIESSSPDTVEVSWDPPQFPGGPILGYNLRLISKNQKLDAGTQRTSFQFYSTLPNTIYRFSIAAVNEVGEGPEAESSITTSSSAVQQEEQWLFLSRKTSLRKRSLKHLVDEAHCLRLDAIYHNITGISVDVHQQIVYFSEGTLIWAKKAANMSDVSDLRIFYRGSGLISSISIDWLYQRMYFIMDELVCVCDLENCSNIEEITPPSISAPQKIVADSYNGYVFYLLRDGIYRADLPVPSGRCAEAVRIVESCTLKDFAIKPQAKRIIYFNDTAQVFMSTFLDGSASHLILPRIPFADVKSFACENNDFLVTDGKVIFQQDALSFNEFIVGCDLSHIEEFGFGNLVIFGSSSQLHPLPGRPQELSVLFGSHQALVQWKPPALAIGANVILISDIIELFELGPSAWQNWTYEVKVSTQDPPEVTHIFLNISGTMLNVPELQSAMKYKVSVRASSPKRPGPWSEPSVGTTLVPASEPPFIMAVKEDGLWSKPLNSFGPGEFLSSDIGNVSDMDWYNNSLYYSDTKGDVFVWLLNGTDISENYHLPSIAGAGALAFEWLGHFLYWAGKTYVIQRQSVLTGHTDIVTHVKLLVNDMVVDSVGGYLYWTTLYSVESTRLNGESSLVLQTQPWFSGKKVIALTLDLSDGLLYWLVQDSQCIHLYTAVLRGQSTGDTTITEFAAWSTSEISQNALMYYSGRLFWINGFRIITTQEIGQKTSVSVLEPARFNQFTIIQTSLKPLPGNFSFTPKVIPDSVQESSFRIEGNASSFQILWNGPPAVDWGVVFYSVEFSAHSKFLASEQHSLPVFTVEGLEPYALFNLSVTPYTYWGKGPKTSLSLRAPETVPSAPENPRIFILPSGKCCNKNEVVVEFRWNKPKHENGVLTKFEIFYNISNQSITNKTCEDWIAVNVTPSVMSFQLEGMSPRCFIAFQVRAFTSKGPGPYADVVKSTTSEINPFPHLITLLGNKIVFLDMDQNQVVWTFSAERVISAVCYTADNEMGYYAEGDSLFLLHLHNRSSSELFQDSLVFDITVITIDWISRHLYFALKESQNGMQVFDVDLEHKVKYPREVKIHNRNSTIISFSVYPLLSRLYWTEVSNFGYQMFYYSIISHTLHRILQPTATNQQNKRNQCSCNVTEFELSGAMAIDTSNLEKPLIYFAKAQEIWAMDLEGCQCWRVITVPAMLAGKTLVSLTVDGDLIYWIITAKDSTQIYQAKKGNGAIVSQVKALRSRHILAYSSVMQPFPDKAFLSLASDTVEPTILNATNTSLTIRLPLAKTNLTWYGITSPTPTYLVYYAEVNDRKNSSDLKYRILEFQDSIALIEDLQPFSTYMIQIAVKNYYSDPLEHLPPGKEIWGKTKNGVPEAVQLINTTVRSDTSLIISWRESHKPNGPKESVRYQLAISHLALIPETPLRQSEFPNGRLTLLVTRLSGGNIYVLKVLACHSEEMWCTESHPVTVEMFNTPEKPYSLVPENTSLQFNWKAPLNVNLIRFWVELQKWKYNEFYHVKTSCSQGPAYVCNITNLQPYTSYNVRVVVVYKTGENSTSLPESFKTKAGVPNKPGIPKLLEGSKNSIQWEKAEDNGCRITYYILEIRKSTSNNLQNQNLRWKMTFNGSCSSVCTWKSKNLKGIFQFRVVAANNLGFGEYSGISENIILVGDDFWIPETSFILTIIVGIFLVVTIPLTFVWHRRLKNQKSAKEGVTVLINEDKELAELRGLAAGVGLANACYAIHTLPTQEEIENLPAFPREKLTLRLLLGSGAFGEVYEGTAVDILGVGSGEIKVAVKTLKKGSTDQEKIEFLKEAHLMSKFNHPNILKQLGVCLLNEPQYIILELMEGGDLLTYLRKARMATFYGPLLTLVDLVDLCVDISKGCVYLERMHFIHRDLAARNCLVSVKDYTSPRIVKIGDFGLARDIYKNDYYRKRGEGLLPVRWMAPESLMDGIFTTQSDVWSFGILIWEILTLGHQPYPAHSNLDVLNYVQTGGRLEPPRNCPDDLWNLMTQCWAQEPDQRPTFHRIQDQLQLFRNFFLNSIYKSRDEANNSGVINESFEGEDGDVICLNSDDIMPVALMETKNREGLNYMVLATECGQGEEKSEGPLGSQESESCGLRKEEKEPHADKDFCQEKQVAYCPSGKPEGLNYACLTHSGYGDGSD
Experimental: (§1) This assay was carried out with Ba/F3 cells containing three different versions of Ros1: the wild-type protein, protein with a mutation at the gatekeeper residue (L2026M), and protein with a mutation identified in a tumor from a patient that became resistant to crizotinib (Xalkori®) treatment (G2032R). Compounds were solubilized in 100% DMSO (dimethyl sulfoxide) and sprayed into polystyrene, tissue culture treated 384-well plates. A 50 μl volume of cell culture medium (phenol red free RPMI-1640, 10% FBS (fetal bovine serum), 2 mM L-Glutamine) containing 20000 Ba/F3-Ros1 cells was added to each well and the plates were placed in an incubator at 37° C. and 5% CO2. After 24 hours, 10 μl of Alamar Blue solution (0.5 mM K3Fe(CN)6, 0.5 mM K4Fe(CN)6, 0.15 mM Resazurin and 100 mM Phosphate Buffer) was added to the wells, incubated for 4 hours at 37° C. and 5% CO2 before RFU's (Relative Fluorescence Units) (ex. 540 nm., em. 590 nm.) were measured in a fluorescence plate reader.

[2] = target: Ba/F3 cells containing Ros1 G2032R (Homo sapiens, UniProt P08922, G2032R, cells depend on it, form not given); test: Ba/F3-Ros1 cell proliferation assay, G2032R mutant; assay type: cell-based, murine; conditions: -log IC50 (M), no IL-3
Chain of Ba/F3 cells containing Ros1 G2032R (P08922 whole entry G2032R, form open): as the sequence (P08922 whole entry, stated change not applied) above, with G2032R counted along it
Experimental: as §1

[3] = tested on: HCC78 non-small cell lung cancer cells; test: HCC78 cell proliferation assay; assay type: cell-based; conditions: Homo sapiens, HCC78, 96 h; -log EC50 (M); 4 days, MTT; read-out: HCC-78 PROL pEC50 (converted)
Experimental: Approximately 1000 HCC78 non-small cell lung cancer cells in 180 μl of cell culture medium (RPMI-1640, 10% FBS, 2 mM L-Glutamine, 10 mM Hepes, 1 mM sodium pyruvate, 4.5 g/L glucose, 1.5 g/L sodium bicarbonate, 25 μg/ml Gentamycin) were seeded in each well of a 96-well polystyrene, tissue-culture treated plate and incubated at 37° C. and 5% CO2. After 24 hours, compounds were diluted in cell culture medium from which 20 μl was added to the wells containing cells and incubated for 4 days at 37° C. and 5% CO2. A 5 mg/ml solution of the tetrazolium dye MTT was prepared in PBS (phosphate-buffered saline) and 25 μl was added to each well. After 2 hours the medium was removed and replaced by 125 μL of 4/1 DMSO/glycine buffer (0.1M glycine, 0.1M NaCl, pH 10.5) before absorbance was determined at 538 nm.

[4] = tested on: Ba/F3-Ros1 G2032R tumors; test: Efficacy study in mice bearing Ba/F3-Ros1 G2032R tumors; assay type: in vivo, NMRI nude mice; conditions: oral gavage, 10 days, 20% cyclodextrin, change in final relative tumor volumes
Experimental: Approximately 2×10^6 Ba/F3 cells containing G2032R mutant Ros1 were inoculated into the inguinal region of NMRI nude mice. When the resulting tumors reached a size of 250 to 350 mm^3, mice were randomly assigned to the different treatment groups (8 to 12 mice per group). Compounds formulated in 20% cyclodextrin were administered to the mice by oral gavage at various doses for 10-days once (QD) or twice (BID) a day (see table below for administration frequency used in the study). Tumor sizes were determined by caliper measurement on day 1 prior to treatment and then twice weekly for the duration of the study using the commonly following formula: tumor volume (mm^3)=(a×b^2/2); where ‘a’ represents the length, and ‘b’ the width of the tumor. Treatment/control (T/C) ratios were calculated at the end of the study based on the change in final relative tumor volumes.

[5] = target: Ba/F3 cells containing Ros1 L2026M (Homo sapiens, UniProt P08922, L2026M, cells depend on it, form not given); test: Ba/F3-Ros1 cell proliferation assay, L2026M gatekeeper mutant; assay type: cell-based, murine; conditions: -log IC50 (M), no IL-3
Chain of Ba/F3 cells containing Ros1 L2026M (P08922 whole entry L2026M, form open): as the sequence (P08922 whole entry, stated change not applied) above, with L2026M counted along it
Experimental: as §1

[6] = tested on: Ba/F3 cells containing Ros1 wild-type protein + IL-3; test: Ba/F3-Ros1 cell proliferation counter-screen, wild-type Ros1 in the presence of murine IL-3; assay type: cell-based; conditions: Mus musculus, BaF3, 24 h; -log IC50 (M); wild-type Ros1, 10 ng/ml murine IL-3 (counter-screen); read-out: BaF3-ROS1 + IL3 pIC50 (converted)
Experimental: as §1
As a counter-screen the same experiment was performed for the wild-type protein in the presence of 10 ng/ml murine IL-3.

[7] = target: T1, Ros1 enzyme (Homo sapiens, UniProt P08922); test: Ros1 enzymatic assay; assay type: biochemical; conditions: -log IC50 (M); 20 μM ATP, 120 min at room temperature; read-out: ROS1 pIC50 (converted)
T1 construct: 0.5 μg/ml Ros1 enzyme
Experimental: Compounds were spotted onto white 384-well Proxiplate plus plates (Perkin Elmer) to which 5 μl of enzyme mix (0.5 μg/ml Ros1 enzyme, 50 mM Tris-HCl pH7.5, 1 mM EGTA, 10 mM MgCl2, 0.01% Tween-20) and 5 μl of substrate mix (6 μg/ml IRS-Tide [American Peptide Company], 20 μM ATP, 13.33 μCi/ml ATP (adenosine 5′-triphosphate) P^33, 50 mM Tris-HCl pH7.5, 1 mM EGTA (ethylene glycol-bis(2-aminoethylether)-N,N,N′,N′-tetraacetic acid), 10 mM MgCl2, 0.01% Tween-20) were added. After incubation for 120 minutes at room temperature, 10 μl of stop reaction buffer (5 mM EDTA, 50 μM ATP, 0.1% BSA (bovine serum albumin), 0.1% Triton X-100, 50 mM Tris-HCl pH7.5, 1 mM EGTA, 10 mM MgCl2, 0.01% Tween-20) containing 2 mg/ml streptavidin coupled polystyrene imaging beads (Amersham Biosciences) was added and incubated for 15 minutes at room temperature. Plates were centrifuged for 3 minutes at 1500 rpm and signals detected in a LEADseeker imaging system (GE).

[8] = target: Ros pY2274 (Homo sapiens, UniProt P08922); test: pROS1 immunofluorescence assay in HCC78 cells; assay type: cell-based; conditions: -log IC50 (M); 4 hours, Ros1 pY2274 normalized to total Ros1
Chain of Ros pY2274 (P08922 1750-2347): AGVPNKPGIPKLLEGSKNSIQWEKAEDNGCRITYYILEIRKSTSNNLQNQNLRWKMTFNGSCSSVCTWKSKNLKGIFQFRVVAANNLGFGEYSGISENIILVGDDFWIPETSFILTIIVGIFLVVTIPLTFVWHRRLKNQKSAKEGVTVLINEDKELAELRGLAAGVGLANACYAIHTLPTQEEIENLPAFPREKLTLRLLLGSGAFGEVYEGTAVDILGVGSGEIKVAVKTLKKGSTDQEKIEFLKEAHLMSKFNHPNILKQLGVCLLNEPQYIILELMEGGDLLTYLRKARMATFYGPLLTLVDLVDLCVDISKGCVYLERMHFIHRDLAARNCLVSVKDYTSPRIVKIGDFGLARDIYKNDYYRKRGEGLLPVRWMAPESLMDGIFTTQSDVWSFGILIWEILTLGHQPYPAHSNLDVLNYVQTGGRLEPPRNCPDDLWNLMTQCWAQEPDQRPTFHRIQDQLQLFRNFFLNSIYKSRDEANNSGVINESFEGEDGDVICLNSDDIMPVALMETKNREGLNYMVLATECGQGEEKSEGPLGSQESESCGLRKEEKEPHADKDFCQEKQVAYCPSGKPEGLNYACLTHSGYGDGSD
Experimental: Approximately 20000 HCC78 non-small cell lung cancer cells in 180 μl of cell culture medium (RPMI-1640, 10% FBS, 2 mM L-Glutamine, 10 mM Hepes, 1 mM sodium pyruvate, 4.5 g/L glucose, 1.5 g/L sodium bicarbonate, 25 μg/ml Gentamycin) were seeded in each well of a 96-well polystyrene, poly-D-lysine coated plate and incubated at 37° C. and 5% CO2. After 24 hours, compounds were diluted in cell culture medium from which 20 μl was added to the wells containing cells and incubated for 4 hours at 37° C. and 5% CO2. The medium was removed and the cells were fixed by adding 100 μl of 5% formaldehyde in TBS (tris-buffered saline) (50 mM Tris.HCl, pH 7.4, 150 mM NaCl) and incubating for 15 minutes at room temperature. The formaldehyde was removed and replaced with methanol for 10 minutes at room temperature, after which the cells were washed 3 times with TBS containing 1% Triton X-100 and incubated in Odyssee (Li-Cor) blocking buffer for 1 hour at room temperature. The cells were then incubated with the primary rabbit antibody directed against Ros pY2274 (cst-3078) diluted 1/200 in blocking buffer for 24 hours at room temperature. The cells were washed three times with TBS containing 0.1% Triton X-100 and incubated with a secondary anti-rabbit antibody conjugated to the fluorescent dye Alexafluor 680 in blocking buffer for 1 hour at room temperature. The cells were washed three times with TBS containing 0.1% Triton X-100 and left to dry before measuring RFUs (Relative Fluorescence Units) at 700 nm using a fluorescence imager. The same experiment was performed using total Ros1 antibody (sc-6347) diluted 1/1000 instead of Ros1 pY2274 antibody and an anti-goat antibody conjugated to IRDye800cw as a secondary antibody. RFUs were measured at […]. The signals from total Ros1 detection were used to normalize the Ros1pY2274 values.

Compound	BaF3-ROS1 − IL3 pIC50 [1]	Ba/3 Ros1 G2032R (-IL-3) pIC50 [2]	EC50 [3]	melting point	T/C (%) ([4]; 12.5 mg/kg BID)	T/C (%) ([4]; 25 mg/kg BID)	T/C (%) ([4]; 50 mg/kg BID)	Ba/F3 Ros1 L2026M (-IL-3) pIC50 [5]	CC50 [6]	IC50 [7]	HCC78 pRos pIC50 [8]
CC(C)c1ccc(COc2ccc(-c3c(-c4ccncc4)nn4c3NCC4)cc2)cc1 [Co. 1]	7.0	6.4	7.94e-07 M	156 °C	64%	16%	−18%	~6.7	5.01e-06 M	1.26e-07 M	–
CC(C)c1ccc(COc2ccc(-c3c(-c4ccncc4)nn4c3NCC4)c(F)c2)cc1 [Co. 5]	7.1	6.7	7.94e-07 M	141 °C	–	–	–	<5	> 1e-05 M	~1.26e-07 M	–
c1cc(-c2nn3c(c2-c2ccc(OCc4ccc(C5CC5)cc4)cc2)NCC3)ccn1 [Co. 7]	6.8	6.2	6.31e-07 M	159 °C	–	–	–	7.5	> 1e-05 M	2.51e-07 M	–
CC(C)c1ccc(COc2ccc(-c3c(-c4ccncc4)nn4c3N(CCO)CC4)cc2)cc1 [Co. 10]	7.1	6.4	2.51e-06 M	151 °C	–	–	–	6.8	> 1e-05 M	1.26e-07 M	–
CC(C)c1ccc(COc2ccc(-c3c(-c4ccncc4)nn4c3NC(=O)C4)cc2)cc1 [Co. 13]	6.8	–	5.01e-07 M	–	–	–	–	6.7	> 1e-05 M	1.58e-07 M	6.8
CC(C)c1ccc(COc2ccc(-c3c(-c4ccncc4)nn4c3NC(=O)CC4)cc2)cc1 [Co. 16]	7.0	–	1e-07 M	290 °C	–	–	–	7.3	> 1e-05 M	1.26e-07 M	~5.4
CC(C)c1ccc(COc2ccc(-c3c(-c4ccncc4)nn4c3NCCC4)cc2)cc1 [Co. 17]	7.1	–	1e-07 M	205 °C	–	–	–	6.9	> 1e-05 M	3.98e-08 M	7.6
CC(C)c1ccc(COc2ccc(-c3c(-c4ccncc4)nn4c3NC(CO)CC4)cc2)cc1 (stereo not drawn) [Co. 24]	7.5	–	7.94e-08 M	199 °C	–	–	–	7.6	7.94e-06 M	6.31e-08 M	–
CC(C)c1ccc(COc2ccc(-c3c(-c4ccncc4)nn4c3NCCC4CO)cc2)cc1 (stereo not drawn) [Co. 25]	7.0	–	7.94e-07 M	155 °C	–	–	–	6.8	> 1e-05 M	1.26e-07 M	–
CC(C)c1ccc(COc2ccc(-c3c(-c4ccncc4)nn4ccc(=O)[nH]c34)cc2)cc1 [Co. E]	7.1	–	5.01e-07 M	243 °C	–	–	–	6.9	> 1e-05 M	6.31e-08 M	–
CNC(=O)c1ccnc2c(-c3ccc(OCc4ccc(C(C)C)cc4)cc3)c(-c3ccncc3)nn12 [Co. J]	6.8	–	2e-06 M	207 °C	–	–	–	6.8	> 1e-05 M	5.01e-07 M	–
